Measurements published in US20240239854A1, “ANTIMICROBIAL PEPTIDES AND MODIFICATIONS THEREOF” (Donald Danforth Plant Science Center, priority 2022, published 2024).
No end group written: not given here.

What was measured:
Type in all cases: cell-based
[1] = test system: Fusarium graminearum PH-1; conditions: for F. graminearum PH-1 MIC Day1: MIC Day 1, 96-well plate, resazurin cell viability
[2] = test system: Botrytis cinerea T4
[3] = test system: Zymoseptoria tritici IPO323

| Molecule | F. graminearum PH-1 MIC Day1 [1] | B. cinerea T4 MIC Day1 [2] | Z. tritici IPO323 MIC Day 1 [3] | Z. tritici IPO323 MIC Day 7 [3] | Z. tritici IPO323 MIC Day 14 [3] | MIC, in-vitro antifungal activity against F. graminearum ([1]; F. graminearum PH-1, 48 hours) | MIC, in-vitro antifungal activity against B. cinerea ([2]; 48 hours) | MIC against Z. tritici on day 1 [3] | MIC against Z. tritici on day 7 [3] | MIC against Z. tritici on day 14 [3] |
| --- | --- | --- | --- | --- | --- | --- | --- | --- | --- | --- |
| PD102.1.1: Cajanus cajan wild-type defensin SEQ ID NO: 628 with N-terminal alanine, expressed in Pichia pastoris (AVCSKPSTYFFGPCVRRSTCRRACSHENYPDGKCSRFLGKCICYKPCTT; cysteine pairing not given here; also: N-terminal alanine added, unclear whether it is the first A of the chain) | 1.5 µM | 1.25 µM | 1 µM | 1.5 µM | 2.5 µM |  |  |  |  |  |
| PD103.1.1: Eucalyptus grandis wild-type defensin SEQ ID NO: 633 with N-terminal alanine, expressed in Pichia pastoris (ATCRKPSMYFSGACFSRTNCQKACNREDWPNGKCLVGFKCFCQRPC; cysteine pairing not given here; also: N-terminal alanine added, unclear whether it is the first A of the chain; listed as Eucalyptus grandis) | 2.5 µM | 1.75 µM | 1.25 µM | 1.25 µM | 3 µM |  |  |  |  |  |
| PD104.1.1: Eucalyptus grandis wild-type defensin SEQ ID NO: 637 with N-terminal alanine, expressed in Pichia pastoris (AICKKPSKFFKGACGRDADCEKACDQENWPGGVCVPFLRCECQRSC; cysteine pairing not given here; also: N-terminal alanine added, unclear whether it is the first A of the chain; listed as Eucalyptus grandis) | >12 µM | >12 µM | >12 µM | >12 µM | >12 µM |  |  |  |  |  |
| PD106.1.1: Eucalyptus grandis wild-type defensin SEQ ID NO: 645 with N-terminal alanine, expressed in Pichia pastoris (ANCAKPSKFYRGPCFNSISVKPCTQRCSQENWPIGVCTKDLRCECQRPC; cysteine pairing not given here; also: N-terminal alanine added, unclear whether it is the first A of the chain; listed as Eucalyptus grandis) | 0.75 µM | 1 µM | 0.375 µM | 1.5 µM | 2.5 µM | 0.75 µM | 1 µM |  |  |  |
| PD108.1.1: Fragaria x anannasa wild-type defensin SEQ ID NO: 653 with N-terminal alanine, expressed in Pichia pastoris (KTCESPSAKFEGPCIMGSNCALTCQKEGHDGGFCRDFWLPKCFCTKPC; N-terminal alanine added; Fragaria X ananassa) | >12 µM | >12 µM | >12 µM | >12 µM | >12 µM |  |  |  |  |  |
| PD113.1.1: Gossypium hirsutum wild-type defensin SEQ ID NO: 674 with N-terminal alanine, expressed in Pichia pastoris (GPTIVGGRKCKSPSKKFNGMCMNHVNCATVCQTESHEDGKCEGFYRRCICIKPCF; N-terminal alanine added; listed as Gossypium hirsutum) | 6 µM | 6 µM | 4 µM | 12 µM | >12 µM |  |  |  |  |  |
| PD115.1.1: Lupinus albus wild-type defensin SEQ ID NO: 683 with N-terminal alanine, expressed in Pichia pastoris (NNCKYESNKFHGVCLSDTNCESVCQTEGFPFGKCDGVLPRTCVCKKPC; N-terminal alanine added; listed as Lupinus albus) | >12 µM | >12 µM | >12 µM | >12 µM | >12 µM |  |  |  |  |  |
| PD117.1.1: Manihot esculenta wild-type defensin SEQ ID NO: 692 with N-terminal alanine, expressed in Pichia pastoris (RICVKPEPLAHCTETICTQFCIRKYGPPPGTVGKCNLPPGFCTCYHNC; N-terminal alanine added; listed as Manihot esculenta) | >12 µM | >12 µM | >12 µM | >12 µM | >12 µM |  |  |  |  |  |
| PD118.1.1: Malus domestica wild-type defensin SEQ ID NO: 697 with N-terminal alanine, expressed in Pichia pastoris (KICEFPSTLFKGLCFSSNNCKHTCRKEQFTRGKCSLLTRTCMCTKKC; N-terminal alanine added; listed as Malus domestica) | 1.5 µM | 1.5 µM | 1.5 µM | 2 µM | 3 µM |  |  |  |  |  |
| PD119.1.1: Setaria italica wild-type defensin SEQ ID NO: 702 with N-terminal alanine, expressed in Pichia pastoris (RHCLSQSHTFKGLCFSSENCASVCKSEKFPGGQCQMHGASRKCFCKVVC; N-terminal alanine added; listed as Setaria italica) | 1.5 µM | 4.5 µM | 2.5 µM | 6 µM | 12 µM |  |  |  |  |  |
| PD121.1.1: Setaria italica wild-type defensin SEQ ID NO: 711 with N-terminal alanine, expressed in Pichia pastoris (RHCLSQSHHFKGLCLSSSNCANVCRVERFPDGECQTTAGTRKCFCKRIC; N-terminal alanine added; listed as Setaria italica) | 1.5 µM | 2 µM | 1 µM | 4 µM | 5 µM |  |  |  |  |  |
| PD123.1.1: Striga asiatica wild-type defensin SEQ ID NO: 719 with N-terminal alanine, expressed in Pichia pastoris (RKCESKSQQFKGLCFIKANCAAVCRTEGFHSGHCRGFRRRCYCTKHC; N-terminal alanine added; listed as Striga asiatica) | 6 µM | 6 µM | 3 µM | 5 µM | 10 µM |  |  |  |  |  |
| PD124.1.1: Rubus argutus wild-type defensin SEQ ID NO: 723 with N-terminal alanine, expressed in Pichia pastoris (RICEVPSKTFIGLCFKDTNCIVRCRSEGYGYGKCSHFRRRCRCFKPCP; N-terminal alanine added; listed as Rubus argutus) | 2 µM | 0.75 µM | 0.75 µM | 3.25 µM | 4 µM |  |  |  |  |  |
| PD125.1.1: wild-type defensin-like protein SEQ ID NO: 728 with N-terminal alanine, expressed in Pichia pastoris (VICPLESKRSKTWSGVCAQSKNCDKQCKTWERAKHGACHATYGKVLGVKACMHAGNK; N-terminal alanine added; listed as Prunus armeniaca) | 8 µM | 10 µM | 3 µM | 7 µM | 9 µM |  |  |  |  |  |
| PD126.1.1: wild-type defensin-like protein SEQ ID NO: 730 with N-terminal alanine, expressed in Pichia pastoris (KLCERRSKTWTGWCAKTSHCNKQCKDWERVEHGACHGEFLEKPVSAISNAHCKISF; N-terminal alanine added; listed as Prunus armeniaca) | >12 µM | >12 µM | >12 µM | >12 µM | >12 µM |  |  |  |  |  |
| PD128.1.1: wild-type defensin-like protein SEQ ID NO: 734 with N-terminal alanine, expressed in Pichia pastoris (RVCLRRSKTWTGFCGNTRGFDSQCKRWECALHGACHC; N-terminal alanine added; listed as Lepidium sativum) | >12 µM | 3 µM | 3 µM | 7 µM | 8 µM |  |  |  |  |  |
| PD97.1.1: Rubus chingii wild-type defensin SEQ ID NO: 608 with N-terminal alanine, expressed in Pichia pastoris (protein, listed as Rubus chingii, N-terminal alanine) GACPLVSKRSKTWSGFCGSSNNCNKQCRSWESAQHGACHNTYKTVLGVKVISGRACFCYFCKKHT | 1.5 µM | 1.25 µM | 0.75 µM | 1.5 µM | 1.5 µM |  |  | 0.75 µM | 1.5 µM | 1.5 µM |
